Measured values published in US20260297081A1, “COMPOUNDS AND METHODS OF TREATING CANCERS” (Cullgen Inc., priority 2023, published 2026).

Biological target: CDK4 (Homo sapiens, UniProt P11802+Q16531)
Test: CDK4 percentage degradation in Calu-1 cells (Table 6)
Format: cell-based
Design: Cells that express cyclin D1-3 and CDK4/6 proteins were treated with heterobifunctional compounds; endogenous in cells; host or cells: Calu-1
Conditions: 16 hours; for inhibition at 0.04 µM: 40 nM; for inhibition at 0.2 µM: 200 nM
In short: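 Percentage degradation of Cyclin D1 and CDK4 derived from densitometry of ECL Western blots on lysates of Calu-1 cells. Treatment was 16 h with compound at either 40 nM or 200 nM.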

CDK4, sequence (P11802 2-303 limits assumed): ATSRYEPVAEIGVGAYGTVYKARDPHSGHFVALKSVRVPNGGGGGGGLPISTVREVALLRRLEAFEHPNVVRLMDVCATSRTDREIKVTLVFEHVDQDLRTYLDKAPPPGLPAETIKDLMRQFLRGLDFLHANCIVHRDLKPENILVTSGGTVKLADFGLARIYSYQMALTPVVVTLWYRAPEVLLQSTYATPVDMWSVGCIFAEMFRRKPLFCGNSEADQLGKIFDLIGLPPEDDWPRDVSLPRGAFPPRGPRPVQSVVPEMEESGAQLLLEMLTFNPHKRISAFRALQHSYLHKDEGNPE
CDK4, sequence (P24385 whole entry partner): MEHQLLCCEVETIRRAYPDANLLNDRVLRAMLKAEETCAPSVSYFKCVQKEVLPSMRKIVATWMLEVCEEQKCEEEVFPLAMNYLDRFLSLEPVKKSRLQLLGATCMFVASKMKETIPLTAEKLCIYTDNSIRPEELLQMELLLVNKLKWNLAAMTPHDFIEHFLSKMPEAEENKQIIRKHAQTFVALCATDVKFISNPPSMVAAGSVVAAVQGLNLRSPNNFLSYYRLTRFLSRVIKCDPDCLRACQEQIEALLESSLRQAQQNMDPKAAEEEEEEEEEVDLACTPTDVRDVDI
CDK4, sequence (Q16531 2-1140 limits assumed): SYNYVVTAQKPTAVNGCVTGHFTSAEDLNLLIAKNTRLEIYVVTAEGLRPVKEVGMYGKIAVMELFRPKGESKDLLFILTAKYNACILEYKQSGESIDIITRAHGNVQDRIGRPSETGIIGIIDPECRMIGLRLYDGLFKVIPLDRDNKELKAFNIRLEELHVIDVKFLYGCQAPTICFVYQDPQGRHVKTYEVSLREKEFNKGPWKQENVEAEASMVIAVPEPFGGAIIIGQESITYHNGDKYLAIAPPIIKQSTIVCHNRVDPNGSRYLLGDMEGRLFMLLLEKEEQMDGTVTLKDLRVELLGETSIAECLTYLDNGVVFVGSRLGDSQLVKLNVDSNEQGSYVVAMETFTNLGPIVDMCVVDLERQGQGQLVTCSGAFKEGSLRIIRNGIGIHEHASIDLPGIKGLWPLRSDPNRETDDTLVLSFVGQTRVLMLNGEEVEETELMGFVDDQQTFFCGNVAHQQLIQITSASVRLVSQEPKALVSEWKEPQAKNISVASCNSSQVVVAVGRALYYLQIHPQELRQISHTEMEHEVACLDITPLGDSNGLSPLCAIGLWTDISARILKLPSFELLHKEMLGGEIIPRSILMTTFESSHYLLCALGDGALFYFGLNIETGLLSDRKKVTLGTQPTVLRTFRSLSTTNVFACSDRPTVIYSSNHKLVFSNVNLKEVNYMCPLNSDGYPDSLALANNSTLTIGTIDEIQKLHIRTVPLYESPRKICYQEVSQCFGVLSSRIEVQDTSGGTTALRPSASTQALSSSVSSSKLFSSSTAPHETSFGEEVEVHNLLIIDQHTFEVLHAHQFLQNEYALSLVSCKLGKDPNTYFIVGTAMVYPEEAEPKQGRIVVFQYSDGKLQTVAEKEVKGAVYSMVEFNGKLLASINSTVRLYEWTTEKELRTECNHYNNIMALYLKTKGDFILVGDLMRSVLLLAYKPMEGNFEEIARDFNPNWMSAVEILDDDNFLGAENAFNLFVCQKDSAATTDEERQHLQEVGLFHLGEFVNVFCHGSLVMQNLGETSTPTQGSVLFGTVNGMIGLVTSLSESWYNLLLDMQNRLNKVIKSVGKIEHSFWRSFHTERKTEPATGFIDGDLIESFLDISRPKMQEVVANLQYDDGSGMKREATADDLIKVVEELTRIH

| inhibition at 0.04 µM | inhibition at 0.2 µM | Structure (SMILES) |
| --- | --- | --- |
| < 30% | < 30% | CNc1ccc(C(=O)Nc2cc(C)[nH]n2)c(NC2CC3(CC(NC(=O)CN4CCN(c5ccc(Nc6ncc7c(C)c(C(C)=O)c(=O)n(C8CCCC8)c7n6)nc5)CC4)C3)C2)n1 (stereo not shown) [CPD-92, 2-((6-(2-(4-(6-((6-Acetyl-8-cyclopentyl-5-methyl-7-oxo-7,8-dihydropyrido[2,3-d]pyrimidin-2-yl)amino)pyridin-3-yl)piperazin-1-yl)acetamido)spiro[3.3]heptan-2-yl)amino)-N-(5-methyl-1H-pyrazol-3-yl)-6-(methylamino)nicotinamide] |
| < 30% | < 30% | CNc1ccc(C(=O)Nc2ccnc(C3CC3)c2)c(NC2CC3(CC(NC(=O)CN4CCN(c5ccc(Nc6ncc7c(C)c(C(C)=O)c(=O)n(C8CCCC8)c7n6)nc5)CC4)C3)C2)n1 (stereo not shown) [CPD-86, 2-((6-(2-(4-(6-((6-Acetyl-8-cyclopentyl-5-methyl-7-oxo-7,8-dihydropyrido[2,3-d]pyrimidin-2-yl)amino)pyridin-3-yl)piperazin-1-yl)acetamido)spiro[3.3]heptan-2-yl)amino)-N-(2-cyclopropylpyridin-4-yl)-6-(methylamino)nicotinamide] |
| < 30% | < 30% | CNc1ccc(C(=O)NC2CCC(N(C)C)CC2)c(NCCCCCNC(=O)CN2CCN(c3ccc(Nc4ncc5c(C)c(C(C)=O)c(=O)n(C6CCCC6)c5n4)nc3)CC2)n1 (stereo not shown) [CPD-48, 2-((5-(2-(4-(6-((6-Acetyl-8-cyclopentyl-5-methyl-7-oxo-7,8-dihydropyrido[2,3-d]pyrimidin-2-yl)amino)pyridin-3-yl)piperazin-1-yl)acetamido)pentyl)amino)-N-(4-(dimethylamino)cyclohexyl)-6-(methylamino)nicotinamide] |
| 50 to 80% | 50 to 80% | CNc1ccc(C(=O)Nc2cn(C)c(C)n2)c(NC2CC3(CC(NC(=O)CN4CCN(c5ccc(Nc6ncc7c(C)c(C(C)=O)c(=O)n(C8CCCC8)c7n6)nc5)CC4)C3)C2)n1 (stereo not shown) [CPD-179, 2-((6-(2-(4-(6-((6-acetyl-8-cyclopentyl-5-methyl-7-oxo-7,8-dihydropyrido[2,3-d]pyrimidin-2-yl)amino)pyridin-3-yl)piperazin-1-yl)acetamido)spiro[3.3]heptan-2-yl)amino)-N-(1,2-dimethyl-1H-imidazol-4-yl)-6-(methylamino)nicotinamide] |
| < 30% | 30 to 50% | CNc1ccc(C(=O)Nc2ccc(N(C)C)nn2)c(NC2CC(CCC(=O)N3CCN(c4ccc(Nc5ncc6c(C)c(C(C)=O)c(=O)n(C7CCCC7)c6n5)nc4)CC3)C2)n1 (stereo not shown) [CPD-185, 2-((3-(3-(4-(6-((6-acetyl-8-cyclopentyl-5-methyl-7-oxo-7,8-dihydropyrido[2,3-d]pyrimidin-2-yl)amino)pyridin-3-yl)piperazin-1-yl)-3-oxopropyl)cyclobutyl)amino)-N-(6-(dimethylamino)pyridazin-3-yl)-6-(methylamino)nicotinamide] |
| < 30% | < 30% | CNc1ccc(C(=O)Nc2ccc3c(cnn3C)n2)c(NCCCCCNC(=O)CN2CCN(c3ccc(Nc4ncc5c(C)c(C(C)=O)c(=O)n(C6CCCC6)c5n4)nc3)CC2)n1 [CPD-32] |
| 50 to 80% | 50 to 80% | CNc1ccc(C(=O)Nc2ccc(N(C)C)nn2)c(NC2CC3(C2)CN(C(=O)C(C)CN2CCN(c4ccc(Nc5ncc6c(C)c(C(C)=O)c(=O)n(C7CCCC7)c6n5)nc4)CC2)C3)n1 (stereo not shown) [CPD-117, 2-((2-(3-(4-(6-((6-Acetyl-8-cyclopentyl-5-methyl-7-oxo-7,8-dihydropyrido[2,3-d]pyrimidin-2-yl)amino)pyridin-3-yl)piperazin-1-yl)-2-methylpropanoyl)-2-azaspiro[3.3]heptan-6-yl)amino)-N-(6-(dimethylamino)pyridazin-3-yl)-6-(methylamino)nicotinamide] |
| 50 to 80% | > 80% | CNc1ccc(C(=O)Nc2ccc(N(C)C)nn2)c(NC2CC(NC(=O)N3CCN(c4ccc(Nc5ncc6c(C)c(C(C)=O)c(=O)n(C7CCCC7)c6n5)nc4)CC3)C2)n1 (stereo not shown) [CPD-151, 4-(6-((6-acetyl-8-cyclopentyl-5-methyl-7-oxo-7,8-dihydropyrido[2,3-d]pyrimidin-2-yl)amino)pyridin-3-yl)-N-(3-((3-((6-(dimethylamino)pyridazin-3-yl)carbamoyl)-6-(methylamino)pyridin-2-yl)amino)cyclobutyl)piperazine-1-carboxamide] |
| 50 to 80% | 50 to 80% | CNc1ccc(C(=O)Nc2cc(C)n(C)n2)c(NC2CC3(CC(NC(=O)CN4CCN(c5ccc(Nc6ncc7c(C)c(C(C)=O)c(=O)n(C8CCCC8)c7n6)nc5)CC4)C3)C2)n1 (stereo not shown) [CPD-70, 2-((6-(2-(4-(6-((6-Acetyl-8-cyclopentyl-5-methyl-7-oxo-7,8-dihydropyrido[2,3-d]pyrimidin-2-yl)amino)pyridin-3-yl)piperazin-1-yl)acetamido)spiro[3.3]heptan-2-yl)amino)-N-(1,5-dimethyl-1H-pyrazol-3-yl)-6-(methylamino)nicotinamide] |
| < 30% | 50 to 80% | CNc1ccc(C(=O)Nc2cccc(C3CC3)n2)c(NC2CC3(C2)CN(C(=O)C(C)(C)N2CCN(c4ccc(Nc5ncc6c(C)c(C(C)=O)c(=O)n(C7CCCC7)c6n5)nc4)CC2)C3)n1 [CPD-175, 2-((2-(2-(4-(6-((6-acetyl-8-cyclopentyl-5-methyl-7-oxo-7,8-dihydropyrido[2,3-d]pyrimidin-2-yl)amino)pyridin-3-yl)piperazin-1-yl)-2-methylpropanoyl)-2-azaspiro[3.3]heptan-6-yl)amino)-N-(6-cyclopropylpyridin-2-yl)-6-(methylamino)nicotinamide] |
| < 30% | 50 to 80% | CNc1ccc(NC(=O)c2ccc(NC)nc2NCCCCCNC(=O)CN2CCN(c3ccc(Nc4ncc5c(C)c(C(C)=O)c(=O)n(C6CCCC6)c5n4)nc3)CC2)nn1 [CPD-110, 2-((5-(2-(4-(6-((6-Acetyl-8-cyclopentyl-5-methyl-7-oxo-7,8-dihydropyrido[2,3-d]pyrimidin-2-yl)amino)pyridin-3-yl)piperazin-1-yl)acetamido)pentyl)amino)-6-(methylamino)-N-(6-(methylamino)pyridazin-3-yl)nicotinamide] |
| 30 to 50% | 30 to 50% | CNc1ccc(C(=O)Nc2ccc(OC)nn2)c(NCCCCCNC(=O)CN2CCN(c3ccc(Nc4ncc5c(C)c(C(C)=O)c(=O)n(C6CCCC6)c5n4)nc3)CC2)n1 [CPD-108, 2-((5-(2-(4-(6-((6-Acetyl-8-cyclopentyl-5-methyl-7-oxo-7,8-dihydropyrido[2,3-d]pyrimidin-2-yl)amino)pyridin-3-yl)piperazin-1-yl)acetamido)pentyl)amino)-N-(6-methoxypyridazin-3-yl)-6-(methylamino)nicotinamide] |
| < 30% | 50 to 80% | CNc1ccc(C(=O)Nc2ccc(N(C)C)nn2)c(N[C@H]2CC[C@H](CNC(=O)CN3CCN(c4ccc(Nc5ncc6c(C)c(C(C)=O)c(=O)n(C7CCCC7)c6n5)nc4)CC3)CC2)n1 [CPD-43, 2-((trans-4-((2-(4-(6-((6-Acetyl-8-cyclopentyl-5-methyl-7-oxo-7,8-dihydropyrido[2,3-d]pyrimidin-2-yl)amino)pyridin-3-yl)piperazin-1-yl)acetamido)methyl)cyclohexyl)amino)-N-(6-(dimethylamino)pyridazin-3-yl)-6-(methylamino)nicotinamide] |
| 30 to 50% | 50 to 80% | CC(=O)c1c(C)c2cnc(Nc3ccc(N4CCN(CC(=O)NCCCCCNc5nc(C(F)(F)F)ccc5C(=O)Nc5ccc(N(C)C)nn5)CC4)cn3)nc2n(C2CCCC2)c1=O [CPD-68, 2-((5-(2-(4-(6-((6-Acetyl-8-cyclopentyl-5-methyl-7-oxo-7,8-dihydropyrido[2,3-d]pyrimidin-2-yl)amino)pyridin-3-yl)piperazin-1-yl)acetamido)pentyl)amino)-N-(6-(dimethylamino)pyridazin-3-yl)-6-(trifluoromethyl)nicotinamide] |
| < 30% | 30 to 50% | CNc1ccc(C(=O)Nc2cccc(C)n2)c(NC2CC(NC(=O)CN3CCN(c4ccc(Nc5ncc6c(C)c(C(C)=O)c(=O)n(C7CCCC7)c6n5)nc4)CC3)C2)n1 (stereo not shown) [CPD-196, 2-((3-(2-(4-(6-((6-acetyl-8-cyclopentyl-5-methyl-7-oxo-7,8-dihydropyrido[2,3-d]pyrimidin-2-yl)amino)pyridin-3-yl)piperazin-1-yl)acetamido)cyclobutyl)amino)-6-(methylamino)-N-(6-methylpyridin-2-yl)nicotinamide] |
| 50 to 80% | 50 to 80% | [2H]C([2H])([2H])Nc1ccc(C(=O)Nc2cccc(C3CC3)n2)c(NC2CC3(CC(NC(=O)CN4CCN(c5ccc(Nc6ncc7c(C)c(C(C)=O)c(=O)n(C8CCCC8)c7n6)nc5)CC4)C3)C2)n1 (stereo not shown) [CPD-163, 2-((6-(2-(4-(6-((6-acetyl-8-cyclopentyl-5-methyl-7-oxo-7,8-dihydropyrido[2,3-d]pyrimidin-2-yl)amino)pyridin-3-yl)piperazin-1-yl)acetamido)spiro[3.3]heptan-2-yl)amino)-N-(6-cyclopropylpyridin-2-yl)-6-((methyl-d3)amino)nicotinamide] |
| < 30% | 50 to 80% | CNc1ccc(C(=O)Nc2ccc(C#N)c(C3CC3)n2)c(NC2CC3(CC(NC(=O)CN4CCN(c5ccc(Nc6ncc7c(C)c(C(C)=O)c(=O)n(C8CCCC8)c7n6)nc5)CC4)C3)C2)n1 (stereo not shown) [CPD-132, 2-((6-(2-(4-(6-((6-Acetyl-8-cyclopentyl-5-methyl-7-oxo-7,8-dihydropyrido[2,3-d]pyrimidin-2-yl)amino)pyridin-3-yl)piperazin-1-yl)acetamido)spiro[3.3]heptan-2-yl)amino)-N-(5-cyano-6-cyclopropylpyridin-2-yl)-6-(methylamino)nicotinamide] |
